Literature values, collected in PMC7904827 (Scientific Reports, 2021).

Key:
[1] = set-up: method as in PMID 29273587; conditions: cited from earlier work
[2] = system: neonatal ventricular cardiomyocytes (NVCMs); conditions: same assay; cited from earlier work
[3] = DEX in the same species (rabbit)

SMILES	half-life of elimination ([1]; ADR-925 formed in vivo from DEX, rabbit)	clearance [1, 3]	elimination half-life [1, 3]	concentrations with significant protective effects against DAU toxicity [2]
C[C@@H](CN(CC(N)=O)CC(=O)O)N(CC(N)=O)CC(=O)O [ADR-925]	2.9 h			
C[C@@H](CN1CC(=O)NC(=O)C1)N1CC(=O)NC(=O)C1 [DEX, dexrazoxane]		5 mL/min/kg	2.0 h	≥ 10 µM
